# Source: patent US5985900A, “Metalloproteinase inhibitors, pharmaceutical compositions containing them and their pharmaceutical uses” (Agouron Pharmaceuticals, Inc., priority 1998, dated 1999)
# Like-named read-outs stand apart in the source and are kept apart here.
# Tests used:
# Type in all cases: biochemical
# human stromelysin (Sln) = human stromelysin (Sln) (Homo sapiens, UniProt P08254); assay: In vitro MMP inhibition assay (hydrolysis of fluorogenic MCA peptide substrate), stromelysin
# Description: The catalytic domain of human stromelysin (Sln) was obtained by expression and purification of a C-terminally truncated prostromelysin-1 from E. coli host BL21 (see Marcy et al. Biochem., 1991, 30, 6476). The subsequent activation of the mature form (Sln) was completed with 2 mM APMA for 1 hour at 37° C., followed by separation using a sizing column.
# (§1) Assays were performed in assay buffer (50 mM Tricine pH 7.5, 200 mM sodium chloride, 10 mM calcium chloride, 0.5 mM zinc acetate containing 2% dimethyl sulfoxide (DMSO)) once the substrate and inhibitor were diluted into it. Stock solutions of inhibitors were prepared in 100% DMSO. Stock solutions of the substrate were prepared in 100% DMSO at a concentration of 6 mM.
# (§2) The assay method was based on the hydrolysis of MCA-Pro-Leu-Gly-Leu-DPA-Ala-Arg-NH2 (American Peptide Co.) at 37° C. (see Knight, C. G. et al., FEBS, 1992, 296, 263-266). The fluorescence changes were monitored with a Perkin-Elmer LS-50B fluorimeter using an excitation wavelength of 328 nm and an emission wavelength of 393 nm. The substrate concentration used in the assays was 10 μM. The inhibitor was diluted into the assays from a solution in 100% DMSO, and controls substituted an equal volume of DMSO so that the final DMSO concentration from inhibitor and substrate dilution in all assays was 2%. […] Proper determination of steady-state rates of substrate cleavage required assay lengths of 60 minutes to allow for complete equilibration of the enzyme-inhibitor complex.
# (§3) The Km for the MCA peptide substrate with the matrix metalloproteinases is quite high and exceeds its solubility under assay conditions. Consequently, the apparent Ki (Ki,app) was determined to describe the strength of inhibition. However, in this case, Ki,app would be essentially equal to Ki since [S]<<Km. For the determination of Ki,app, the concentration of the inhibitor was varied at a constant and low concentration of substrate and the steady-state rates of fluorescence change determined. In most cases absorptive quench due to the presence of ligand was not observed. For slow-binding inhibitors, onset of inhibition curves were collected for at least 45 minutes so that equilibrium was established. Steady-state rates of fluorescence change were obtained by fitting a curve to an equation for a single exponential decay containing a linear phase. The fitted value of the linear phase was taken as the steady-state rate. The steady-state rates were fitted to the Michaelis equation describing competitive inhibition by non-linear methods. Data resulting from tight-binding inhibition was analyzed, and Ki,app determined by fitting the data to the tight-binding equation of Morrison (Biochem. Biophys. Acta, vol. 185, pp. 269-286 (1969)) by non-linear methods.
# (§4) All Ki values are in nM units.
# [1] = target: human progelatinase A (GelA) (Homo sapiens, UniProt P08253); assay: In vitro MMP inhibition assay (hydrolysis of fluorogenic MCA peptide substrate), gelatinase A
# Sequence of human progelatinase A (GelA) (P08253 110-446 limits assumed): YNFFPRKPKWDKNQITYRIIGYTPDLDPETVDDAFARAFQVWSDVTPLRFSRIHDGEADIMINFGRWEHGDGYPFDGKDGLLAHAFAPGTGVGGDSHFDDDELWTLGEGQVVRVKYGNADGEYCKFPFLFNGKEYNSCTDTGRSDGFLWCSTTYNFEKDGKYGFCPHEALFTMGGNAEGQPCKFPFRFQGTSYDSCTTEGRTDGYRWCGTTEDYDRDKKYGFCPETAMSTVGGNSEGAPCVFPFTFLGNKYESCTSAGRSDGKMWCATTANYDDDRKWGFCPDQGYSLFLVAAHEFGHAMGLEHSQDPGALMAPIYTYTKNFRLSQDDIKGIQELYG
# Description: The catalytic and fibronectin-like portion of human progelatinase A (GelA) was expressed as a fusion protein with ubiquitin in E. Coli. Assays were carried out on autocatalytically activated material.
# as §1, §2, §3, §4
# [2] = target: T1, human collagenase-3 (Coll3) (Homo sapiens, UniProt P45452); assay: In vitro MMP inhibition assay (hydrolysis of fluorogenic MCA peptide substrate), collagenase-3; conditions: Table 1; Ki,app; MCA peptide substrate 10 μM, 37° C., pH 7.5, 2% DMSO
# T1 construct: catalytic domain liberated with APMA
# Description: The propeptide and catalytic domain of human collagenase-3 (Coll3) was expressed in E. coli as an N-terminal fusion protein with ubiquitin. After purification of the fusion from inclusion bodies, the catalytic domain was liberated by treatment with 2 mM APMA at room temperature overnight. Final purification was completed using copper chelate chromatography.
# as §1, §2, §3, §4
# [3] = Table 1, Ki,app, MCA peptide substrate 10 μM, 37° C., pH 7.5, 2% DMSO, read-out: Sin Ki
# [4] = Table 1, Ki,app, MCA peptide substrate 10 μM, 37° C., pH 7.5, 2% DMSO, read-out: Gel A
# Sequence of human stromelysin (Sln) (P08254 100-272 limits assumed): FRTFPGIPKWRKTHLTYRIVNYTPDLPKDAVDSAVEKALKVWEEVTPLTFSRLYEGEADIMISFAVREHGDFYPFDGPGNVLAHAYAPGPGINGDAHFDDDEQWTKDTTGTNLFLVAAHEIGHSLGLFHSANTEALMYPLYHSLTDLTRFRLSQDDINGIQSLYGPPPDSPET
Structure (SMILES),Ki (human stromelysin (Sln); [3]),"Ki [1, 4]",Ki [2],"Ki (human stromelysin (Sln); Table 2, comparative example, read-out: STROMELYSIN Ki)","Ki ([1]; Table 2, comparative example, gelatinase A, read-out: GELATINASE Kj)"
"Cc1ccc(Oc2ccc(S(=O)(=O)N[C@@H](C(=O)O)C(C)(C)SCc3ccccn3)cc2)cc1 [Example 3g, N-[4-(4-Methylphenoxy)benzenesulfonyl]--S--[(pyrid-2-yl)methyl]-D-penicillamine]",1310 nM,10 nM,117 nM,,
"CC(C)(SCCO)[C@@H](NS(=O)(=O)c1ccc(Oc2ccc(F)cc2)cc1)C(=O)O [Example 8a, S--[2-Hydroxyethyl]--N--[4-(4-fluorophenoxy)benzenesulfonyl]-D-penicillamine]",12500 nM,373 nM,,,
"CC(C)(SCc1ccccn1)[C@@H](NS(=O)(=O)c1ccc(Oc2ccc(C(F)(F)F)cc2)cc1)C(=O)O [Example 3j, N-[4-(4-(trifluoromethyl)phenoxy)benzenesulfonyl]--S--[(pyrid-2-yl)methyl]-D-penicillamine]",2950 nM,48 nM,,,
"CC(C)(C)OC(=O)CSC(C)(C)[C@@H](NS(=O)(=O)c1ccc(Oc2ccc(F)cc2)cc1)C(=O)O [Example 3n, S--(t-Butoxycarbonyl)methyl--N--[4-(4-fluorophenoxy)benzenesulfonyl]-D-penicillamine]",5700 nM,183 nM,574 nM,,
"CC(C)(SCc1ccccc1)[C@@H](NS(=O)(=O)c1ccc(Oc2ccncc2)cc1)C(=O)O [Example 4a, S-Benzyl--N--[4-(pyrid-4-yl)oxybenzenesulfonyl]-D-penicillamine]",7700 nM,193 nM,360 nM,,
"CC(C)(SCc1nccn1Cc1ccccc1)[C@@H](NS(=O)(=O)c1ccc(Oc2ccc(Br)cc2)cc1)C(=O)O [Example 3b, N-[4-(4-Bromophenoxy)benzenesulfonyl]--S--[(1-benzyl-1H-imidazol-2-yl)methyl]-D-penicillamine]",558 nM,1.8 nM,108 nM,,
"Cc1cc(CSC(C)(C)[C@@H](NS(=O)(=O)c2ccc(Oc3ccc(Br)cc3)cc2)C(=O)O)no1 [Example 3k, N-[4-(4-Bromophenoxy)benzenesulfonyl]--S--[(5-methylisoxazol-3-yl)-methyl]-D-penicillamine]",2600 nM,4.2 nM,209 nM,,
"Cc1cc(CSC(C)(C)[C@@H](NS(=O)(=O)c2ccc(Sc3ccncc3)cc2)C(=O)O)no1 [Example 4c, S--[(5-Methylisoxazol-3-yl)methyl]--N--[4(pyrid-4-yl)sulfanylbenzenesulfonyl]-D-penicillamine]",97000 nM,890 nM,7000 nM,,
CC(C)(C)[C@@H](NS(=O)(=O)c1ccc(Oc2ccccn2)cc1)C(=O)O [Example 4d],274000 nM,11000 nM,27000 nM,,
"Cc1ccc(Oc2ccc(S(=O)(=O)N[C@@H](C(=O)NO)C(C)(C)SCc3ccccn3)cc2)cc1 [Example 9g, 2(S)--N-hydroxy-3-methyl-3-(pyrid-2-yl)methylsulfanyl-2-[(4-(4-methylphenoxy)benzenesulfonyl)amino]butanamide]",0.73 nM,0.036 nM,,,
"Cc1cc(CSC(C)(C)[C@@H](NS(=O)(=O)c2ccc(Oc3ccc(F)cc3)cc2)C(=O)NO)no1 [Example 9c, 2(S)--N-hydroxy-3-methyl-3-(5-methylisoxazol-3-yl)methylsulfanyl-2-[(4-(4-fluorophenoxy)benzenesulfonyl)amino]butanamide]",0.63 nM,0.024 nM,,,
"CC(C)(O)[C@@H](NS(=O)(=O)c1ccc(Oc2ccc(Br)cc2)cc1)C(=O)O [Example 3s, N-[4-(4-Bromophenoxy)benzenesulfonyl]-D--(β-hydroxy)valine]",348000 nM,900 nM,,,
"CC(C)(SCc1ccccn1)[C@@H](NS(=O)(=O)c1ccc(Oc2ccc(C#N)cc2)cc1)C(=O)O [Example 3h, N-[4-(4-Cyanophenoxy)benzenesulfonyl]--S--[(pyrid-2-yl)methyl]-D-penicillamine]",8200 nM,73 nM,258 nM,,
"Cc1cc(CSC(C)(C)[C@@H](NS(=O)(=O)c2ccc(Oc3ccc(F)cc3)cc2)C(=O)O)no1 [Example 3l, N-[4-(4-Fluorophenoxy)benzenesulfonyl]--S--[(5-methylisoxazol-3-yl)methyl]-D-penicillamine]",5100 nM,35.3 nM,248 nM,,
"CC(C)(SCc1nccn1Cc1ccccc1)[C@@H](NS(=O)(=O)c1ccc(Oc2ccc(F)cc2)cc1)C(=O)O [Example 3a, S--[(1-Benzyl-1H-imidazol-2-yl)methyl]--N--[4-(4-fluorophenoxy)benzenesulfonyl]-D-penicillamine]",1300 nM,11 nM,200 nM,,
"Cc1cc(CSC(C)(C)[C@@H](NS(=O)(=O)c2ccc(Oc3ccc(Br)cc3)cc2)C(=O)NO)no1 [Example 9d, 2(S)--N-hydroxy-3-methyl-3-(5-methylisoxazol-3-yl)methylsulfanyl-2-[(4-(4-bromophenoxy)benzenesulfonyl)amino]butanamide]",0.24 nM,,0.013 nM,,
"CC(C)(C)[C@@H](NS(=O)(=O)c1ccc(Oc2ccc(F)cc2)cc1)C(=O)O [Example 3q, N-[4-(4-Fluorophenoxy)benzenesulfonyl]-D-tert-leucine]",14000 nM,150 nM,1180 nM,,
"Cc1cc(CSC(C)(C)[C@@H](NS(=O)(=O)c2ccc(Oc3ccncc3)cc2)C(=O)O)no1 [Example 4b, S--[(5-Methylisoxazol-3-yl)methyl]--N--[4(pyrid-4-yl)oxybenzenesulfonyl]-D-penicillamine]",751 nM,27 nM,,,
"COC(=O)CCSC(C)(C)[C@@H](NS(=O)(=O)c1ccc(Oc2ccc(F)cc2)cc1)C(=O)O [Example 7, S--[2-(Methoxycarbonyl)ethyl]--N--[4-(4-fluorophenoxy)benzenesulfonyl]-D-penicillamine]",10500 nM,165 nM,,,
Cn1ccnc1CSC(C)(C)[C@@H](NS(=O)(=O)c1ccc(Oc2ccc(Br)cc2)cc1)C(=O)O [Example 3o],2150 nM,34 nM,,,
"Cc1ccc(S(=O)(=O)NCC(=O)NO)cc1 [Compound 13, N-hydroxy-2-(toluene-4-sulfonylamino)acetamide, reference compound]",,,,3400 nM,3500 nM
"CC(C)(SCc1ccccn1)[C@@H](NS(=O)(=O)c1ccc(Oc2ccc(I)cc2)cc1)C(=O)NO [Example 9f, 2(S)--N-hydroxy-3-methyl-3-(pyrid-2-yl)methylsulfanyl-2-[(4-(4-iodophenoxy)benzenesulfonyl)amino]butanamide]",0.29 nM,,0.015 nM,,
"Cn1ccnc1CSC(C)(C)[C@@H](NS(=O)(=O)c1ccc(Oc2ccc(Br)cc2)cc1)C(=O)NO [Example 9n, 2(S)--N-hydroxy-3-methyl-3-(1-methyl-1H-imidazol-2-yl)-methylsulfanyl-2-[(4-(4-bromophenoxy)benzenesulfonyl)amino]butanamide]",0.2 nM,0.11 nM,,,
"Cc1cc(CSC(C)(C)[C@@H](NS(=O)(=O)c2ccc(Oc3ccncc3)cc2)C(=O)NO)no1 [Example 10a, 2(S)--N-hydroxy-3-methyl-3-(5-methylisoxazol-3-yl)methylsulfanyl-2-[(4-(pyrid-4-yloxy)benzenesulfonyl)amino]butanamide]",11.4 nM,0.32 nM,,,
"CC(C)(SCCC(N)=O)[C@@H](NS(=O)(=O)c1ccc(Oc2ccc(F)cc2)cc1)C(=O)O [Example 8b, S--[2-(Aminocarbonyl)ethyl]--N--[4-(4-fluorophenoxy)benzenesulfonyl]-D-penicillamine]",5700 nM,334 nM,,,
